Laboratory results: ChEMBL document CHEMBL1250462, “Affinity of aporphines for the human 5-HT2A receptor: insights from homology modeling and molecular docking studies” (Bioorg Med Chem, 2010)

What follows are molecules tested against 5-hydroxytryptamine receptor 2A (Homo sapiens) (UniProt P28223).
Chain of 5-hydroxytryptamine receptor 2A (Homo sapiens) (P28223 whole entry): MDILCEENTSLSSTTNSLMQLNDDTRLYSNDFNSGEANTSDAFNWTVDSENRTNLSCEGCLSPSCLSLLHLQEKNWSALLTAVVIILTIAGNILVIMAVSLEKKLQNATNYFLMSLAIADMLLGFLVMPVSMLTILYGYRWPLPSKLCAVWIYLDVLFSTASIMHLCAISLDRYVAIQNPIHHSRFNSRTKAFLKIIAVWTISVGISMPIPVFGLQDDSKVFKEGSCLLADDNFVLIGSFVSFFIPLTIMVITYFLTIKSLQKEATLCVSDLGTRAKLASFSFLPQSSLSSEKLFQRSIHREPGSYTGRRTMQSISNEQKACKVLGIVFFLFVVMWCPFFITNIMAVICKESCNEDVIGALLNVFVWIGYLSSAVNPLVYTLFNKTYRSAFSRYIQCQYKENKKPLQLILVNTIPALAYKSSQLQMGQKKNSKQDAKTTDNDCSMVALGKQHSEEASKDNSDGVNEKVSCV

Row | Ke [µM] | SMILES
1 | > 10 | COc1cc2c3c(c1OC)-c1cc4c(cc1CC3N(C(C)=O)CC2)OCO4 (stereo not drawn)
2 | 4.6 | COc1cc2c3c(c1OCc1ccccc1)-c1cc4c(cc1CC3N(C)CC2)OCO4 (stereo not drawn)
3 | > 10 | COc1cc2c3c(c1OC)-c1cc4c(cc1CC3N(S(C)(=O)=O)CC2)OCO4 (stereo not drawn)
